Tests used:
[1] = system: primary OPCs purified by magnetic cell sorting (MACS) from neonatal cortices; assay: Primary OPC cultures purified by MACS, morphological complexity of OLs; type: cell-based, mice; conditions: OPCs treated for two days; compared to vehicle; FIG. 2B
Protocol: Brains were collected from PLPGFP and P4 Swiss mice […] and washed 3 times in PBS 1× (Invitrogen) with 1% of penicillin/streptomycin (Sigma). Cortex and corpus callosum were dissected and dissociated using neural tissue dissociation kit (T) (Miltenyi biotec) and with dissociator (gentleMACS Octo Dissociator, Miltenyi Biotec). OPC magnetic cell sorting was performed using anti-PDGFRα-coupled-beads (CD140a-PDGFRα MicroBead Kit, Miltenyi biotec) and MultiMACS Cell24 Separator Plus (Miltenyi biotec). Cells were collected in PBS and amplified for 2 days in a proliferating medium (with growth factors IGF, EGF, FGF, and PDGFα). Then, 40.000 cells were plated in 24 well plates adherent on coverslips, beforehand coated with poly-ornithine (Merck) diluted in 4 volumes of H2O and washed 3 times. Successively, for 2 days of proliferation and differentiation, medium was added with drugs at 250 nM, 500 nM and 750 nM, and their respective vehicles (DMSO, PBS). Cells were fixed in 4% PBS-paraformaldehyde (thermo fisher) for 10 minutes and washed 3 times in PBS-1×.
For coated-coverslip, blocking was performed in a moist chamber for 30 mn at room temperature (RT) in the blocking buffer (0.05% Triton X-100/10% normal goat serum/PBS). Then, coverslip were incubated for 30 mn with the following primary antibodies at RT. Rat anti-PDGFRα (1:250, BD Biosciences); Mouse anti-CNPase (mlgG1, 1:250; Millipore); Rabbit anti-Btub (1:1000; BABCO); Chicken anti-GFAP (1:500, Avelabs), Mouse anti-MBP (mlgG1, 1:150; Abcam); Rabbit anti-Sox10 (1:1000; Proteintech). Following 3 washing in 0.05% Triton X-100/PBS, coverslips were incubated 30 min at RT in dark with appropriate secondary antibodies conjugated with Alexa Fluor 488, 594 and 647 (1:1000; Molecular Probes or Thermo Fisher) and Dapi (1:5000 from working solution at 5 mg/ml; Life Technologies; D1306). Coverslips were washed 3 times in 0.05% Triton X-100/PBS and mounted with Fluoromount-G (SouthernBiotech).
To evaluate cell specific contribution of the drugs directly in OL differentiation and maturation, we used primary OPCs purified by magnetic cell sorting (MACS) from neonatal cortices (P4).

[2] = system: neonatal chronic hypoxia model (dorsal SVZ and cortex); assay: Neonatal chronic hypoxia model of preterm birth brain injury, intranasal administration; type: in vivo, mice
Protocol: Mice aged P1 were placed in a hypoxic rearing chamber maintaining at 9.5-10.5% O2 concentration by displacement with N2. Hypoxia began at the postnatal day 3 (P3) for 8 days until P11. A separate group was maintained in a normal atmosphere (normoxic group). […] Mucus was first permeabilized by the use of type IV hyaluronidase, then 10 μl of drugs (Sigma) was administered 3 times, 1 time a day from P11 to P13 (starting at the end of the hypoxic period, then every 24 hours) in sterile PBS (control). For analysis of proliferation, mice were injected with EdU (Sigma) in order to label cells in an actively cycling state in S-phase, then perfused 1 h later at P13. For analysis of OL maturation, mice were perfused at P19. All perfusions were performed with Ringer, followed by ice cold solution of 4% paraformaldehyde (Thermo Fisher). Mice were sacrificed at P13 or P19 by an intraperitoneal overdose of pentobarbital followed by perfusion with Ringer's lactate solution and 4% paraformaldehyde (PFA; Sigma) dissolved in 0.1M phosphate buffer (PB; pH 7.4). Brains were removed and post-fixed for 24 hours at 4° C. in 4% PFA and sectioned in 50 μm thick coronal serial sections, free floating sections.
For in vivo-cryosections (50 μm) of chronic hypoxia, antigen retrieval was performed for 20 min in a citrate buffer (ph 6.0) at 80° C., then cooled for 20 min at room temperature and washed in 0.1M PB. The following antibody were used for immunohistochemical procedures: Mouse anti-APC (CC1 IgG2B; 1:100, calbiochem); Mouse anti-Olig2 (1:1500; Millipore); Rabbit anti-Olig2 (1:400; Millipore); Rabbit anti-GSTpi (1:1000, Enzo). Blocking was performed in a TNB buffer (0.1 M PB; 0.05% Casein; 0.25% Bovine Serum Albumin; 0.25% TopBlock) with 0.4% triton-X (TNB-Tx). Sections were incubated overnight at 4° C. with gentle shaking. Following extensive washing in 0.1 M PB with 0.4% triton-X (PB-Tx), sections were incubated with appropriate secondary antibodies conjugated with Alexa Fluor 488 or 555 (1:500; Jackson or Invitrogen) for 2 hrs at room temperature. Sections were washed and counterstained with Dapi (1:5000 from a working solution at 5 mg/ml; Life Technologies; D1306). Revelation of EdU was done using Click-it™, EdU cell proliferation Kit for imaging, Alexa fluor™ 647 dye (Thermo Fisher scientific).
Chronic hypoxia is a well-established model of very preterm birth, that induces a diffuse perinatal brain lesion by housing the pups at 10% oxygen from P3 to P11 (FIG. 5A). This neonatal hypoxia induces a marginal cell death including neuronal and glial cells along with delay into forebrain development including OL maturation that appear to persist in adulthood. […] We next assessed the impact on OL differentiation by immunodetection of OLs with CC1 antibody and oligodendroglial cells by Olig2.

CCCCOc1ccc(C(=O)CCN2CCCCC2)cc1.Cl [Sm5, Dyclonine hydrochloride]
morphological complexity of OLs (PLP+ cells) [1]: strongly increased | EdU+ cell density within the subventricular zone (proliferation) ([2]; P13, intranasal P11 to P13, sm5 at 5 μg per g, sm11 at 0.5 μg per g, versus hypoxia, FIG. 6A): no marked additive effects | proportion of Olig2+ cells labeled with EdU (proliferative OPCs, dorsal SVZ) ([2]; P13, intranasal P11 to P13, versus hypoxia, FIG. 6B): significant increase | myelinating OLs (GSTπ+ cells), GSTπ expression ([2]; P19, cortex, intranasal P11 to P13, after hypoxia, FIG. 5D): complete recovery | OL differentiation, ratio of Olig2+ cells expressing CC1 ([2]; P19, cortex, intranasal P11 to P13, compared to hypoxic and normoxic groups, FIG. 5C): increased OL differentiation beyond the normoxic and sm11 groups | density of oligodendroglial cells (Olig2+ cells) in the cortex ([2]; P19, intranasal P11 to P13, FIG. 5B): no major effect

— US20250195523A1, “ORGANIC MOLECULES FOR TREATING MYELIN PATHOLOGIES” (ICM (INSTITUT DU CERVEAU ET DE LA MOELLE ÉPINIÈRE), priority 2022, published 2025)
